Measured values taken from patent US20170247393A1, “Aminoisoxazoline Compounds as Agonists of Alpha7-Nicotinic Acetylcholine Receptors” (Forum Pharmaceuticals, Inc., priority 2015, published 2017).
Structures can show the parent of a compound that is named as a salt.

molecular target: T1, human 5-HT3 serotonin receptors (Homo sapiens, UniProt P46098); assay: biochemical; type: binding; conditions: not given
T1 sequence (P46098 24-478): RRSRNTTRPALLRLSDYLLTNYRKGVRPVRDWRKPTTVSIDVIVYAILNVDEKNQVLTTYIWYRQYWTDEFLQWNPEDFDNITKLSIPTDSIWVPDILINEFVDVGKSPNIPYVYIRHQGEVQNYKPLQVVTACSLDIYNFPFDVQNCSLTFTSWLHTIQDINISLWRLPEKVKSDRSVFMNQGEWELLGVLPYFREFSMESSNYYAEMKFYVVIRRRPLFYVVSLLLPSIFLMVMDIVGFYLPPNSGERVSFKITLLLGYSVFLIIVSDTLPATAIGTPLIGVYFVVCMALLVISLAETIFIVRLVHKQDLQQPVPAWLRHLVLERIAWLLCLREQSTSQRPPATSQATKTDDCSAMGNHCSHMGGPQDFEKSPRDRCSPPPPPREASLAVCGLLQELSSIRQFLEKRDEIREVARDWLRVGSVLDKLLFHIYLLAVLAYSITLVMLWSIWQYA

Structure (SMILES)	Ki [µM]
Clc1ccc(NC2=NOC3(C2)CN2CCC3CC2)cc1 (single isomer, unassigned) [Compound 20-P1, N-(4-chlorophenyl)-4H-1′-azaspiro[isoxazole-5,3′-bicyclo[2.2.2]octan]-3-amine]	0.069
c1ccc(NC2=NOC3(C2)CN2CCC3CC2)cc1 (single isomer, unassigned) [Compound 1-P1, N-phenyl-4H-1′-azaspiro[isoxazole-5,3′-bicyclo[2.2.2]octan]-3-amine]	0.0084
Clc1coc2cc(NC3=NO[C@@]4(C3)CN3CCC4CC3)ccc12 [(R)-73-1, (R)—N-(3-chlorobenzofuran-6-yl)-4H-1′-azaspiro[isoxazole-5,3′-bicyclo[2.2.2]octan]-3-amine hydrochloride]	4.9
Cc1cn2ccc(NC3=NO[C@@]4(C3)CN3CCC4CC3)cc2n1 [(R)-96, (R)-N-(2-methylimidazo[1,2-a]pyridin-7-yl)-4H-1′-azaspiro[isoxazole-5,3′-bicyclo[2.2.2]octan]-3-amine hydrochloride]	> 10
Cc1cc2cnc(NC3=NO[C@@]4(C3)CN3CCC4CC3)cc2o1 [(R)-100, (R)-N-(2-methylfuro[3,2-c]pyridin-6-yl)spiro[4H-isoxazole-5,3′-quinuclidine]-3-amine hydrochloride]	> 10

same assay, conditions: CHO cell membranes expressing human 5-HT3 receptors, [3H]BRL 43694, 120 min at room temperature; read-out: h-5HT3 Ki

Structure (SMILES)	Ki [µM]
Cc1ccc2cc(NC3=NO[C@@]4(C3)CN3CCC4CC3)ncc2c1 [(R)-59, (R)—N-(7-methylisoquinolin-3-yl)-4H-1′-azaspiro[isoxazole-5,3′-bicyclo[2.2.2]octan]-3-amine hydrochloride]	> 10
Clc1cccc2nc(NC3=NO[C@]4(C3)CN3CCC4CC3)sc12 [(S)-11, (S)—N-(7-chlorobenzo[d]thiazol-2-yl)-4H-1′-azaspiro[isoxazole-5,3′-bicyclo[2.2.2]octan]-3-amine]	0.13
Cn1ncc2cc(NC3=NO[C@@]4(C3)CN3CCC4CC3)ccc21 [(R)-65, (R)—N-(1-methyl-1H-indazol-5-yl)-4H-1′-azaspiro[isoxazole-5,3′-bicyclo[2.2.2]octan]-3-amine hydrochloride]	> 10
Cc1ccc2cnc(NC3=NO[C@@]4(C3)CN3CCC4CC3)cc2c1 [(R)-60, (R)—N-(6-methylisoquinolin-3-yl)-4H-1′-azaspiro[isoxazole-5,3′-bicyclo[2.2.2]octan]-3-amine hydrochloride]	> 10
Cc1nc2ccc(NC3=NO[C@@]4(C3)CN3CCC4CC3)cc2s1 [(R)-50, (R)—N-(2-methylbenzo[d]thiazol-6-yl)-4H-1′-azaspiro[isoxazole-5,3′-bicyclo[2.2.2]octan]-3-amine hydrochloride]	6.2
Cc1nsc2cc(NC3=NO[C@@]4(C3)CN3CCC4CC3)ccc12 [(R)-72, (R)—N-(3-methylbenzo[d]isothiazol-6-yl)-4H-1′-azaspiro[isoxazole-5,3′-bicyclo[2.2.2]octan]-3-amine hydrochloride]	> 10
Fc1ccc2cnc(NC3=NO[C@@]4(C3)CN3CCC4CC3)cc2c1 [(R)-45, (R)—N-(6-fluoroisoquinolin-3-yl)-4H-1′-azaspiro[isoxazole-5,3′-bicyclo[2.2.2]octan]-3-amine hydrochloride]	> 10
Clc1ccc2cc(NC3=NOC4(C3)CN3CCC4CC3)ncc2c1 (single isomer, unassigned) [Compound 19-P2, N-(7-chloroisoquinolin-3-yl)-4H-1′-azaspiro[isoxazole-5,3′-bicyclo[2.2.2]octan]-3-amine]	> 10
Fc1cc2cc(NC3=NO[C@@]4(C3)CN3CCC4CC3)ncc2cc1Cl [(R)-82, (R)—N-(7-chloro-6-fluoroisoquinolin-3-yl)-4H-1′-azaspiro[isoxazole-5,3′-bicyclo[2.2.2]octan]-3-amine hydrochloride]	> 10
Cc1cc2cnc(NC3=NO[C@@]4(C3)CN3CCC4CC3)nc2o1 [(R)-75, (R)—N-(6-methylfuro[2,3-d]pyrimidin-2-yl)spiro[4H-isoxazole-5,3′-quinuclidine]-3-amine hydrochloride]	> 10
Cc1cc2ccc(NC3=NO[C@@]4(C3)CN3CCC4CC3)cc2s1 [(R)-42, (R)—N-(2-methylbenzo[b]thiophen-6-yl)-4H-1′-azaspiro[isoxazole-5,3′-bicyclo[2.2.2]octan]-3-amine hydrochloride]	> 10
Clc1ccc2cnc(NC3=NO[C@@]4(C3)CN3CCC4CC3)cc2c1 [(R)-18, (R)—N-(6-chloroisoquinolin-3-yl)-4H-1′-azaspiroksoxazole-5,3^1-bicyclo[2.2.2]octan1-3-amine hydrochloride]	> 10
Clc1cccc2cnc(NC3=NO[C@@]4(C3)CN3CCC4CC3)cc12 [(R)-24, (R)—N -(5-chloroisoquinolin-3-yl)-4H-1′-azaspiroksoxazole-5,3′-bicyclo[2.2.2]octan1-3-amine hydrochloride]	0.26
Cc1cc2cnc(NC3=NO[C@@]4(C3)CN3CCC4CC3)nc2s1 [(R)-52, (R)—N-(6-methylthieno[2,3-d]pyrimidin-2-yl)-4H-1′-azaspiro[isoxazole-5,3′-bicyclo[2.2.2]octan]-3-amine hydrochloride]	> 10
FC(F)(F)c1cc2ccc(NC3=NO[C@@]4(C3)CN3CCC4CC3)cc2s1 [(R)-67, (R)—N-(2-(trifluoromethyl)benzo[b]thiophen-6-yl)-4H-1′-azaspiro[isoxazole-5,3′-bicyclo[2.2.2]octan]-3-amine hydrochloride]	> 10
c1ccc2cc(NC3=NOC4(C3)CN3CCC4CC3)ncc2c1 (single isomer, unassigned) [Compound 2-P2, N-(isoquinolin-3-yl)-4H-1′-azaspiro[isoxazole-5,3′-bicyclo[2.2.2]octan]-3-amine]	0.81
Fc1c(Cl)sc2cc(NC3=NO[C@@]4(C3)CN3CCC4CC3)ccc12 [(R)-78, (R)—N-(2-chloro-3-fluorobenzo[b]thiophen-6-yl)-4H-1′-azaspiro[isoxazole-5,3′-bicyclo[2.2.2]octan]-3-amine hydrochloride]	> 10
Cn1ncc2ccc(NC3=NO[C@@]4(C3)CN3CCC4CC3)cc21 [(R)-64, (R)—N-(1-methyl-1H-indazol-6-yl)-4H-1′-azaspiro[isoxazole-5,3′-bicyclo[2.2.2]octan]-3-amine hydrochloride]	> 10
c1ccc2c(NC3=NOC4(C3)CN3CCC4CC3)n[nH]c2c1 (racemic) [Compound 5-P1, N-(1H-indazol-3-yl)-4′H-4-azaspiro[bicyclo[2.2.2]octane-2,5′-isoxazol]-3′-amine]	0.75
Clc1ccc2nc(NC3=NOC4(C3)CN3CCC4CC3)sc2c1 (single isomer, unassigned) [Compound 10-P2, N-(6-chlorobenzo[d]thiazol-2-yl)-4H-1′-azaspiro[isoxazole-5,3′-bicyclo[2.2.2]octan]-3-amine]	> 10
c1cnc2ccc(NC3=NO[C@@]4(C3)CN3CCC4CC3)cc2c1 [(R)-80, (R)—N-(quinolin-6-yl)-41-1-1^1-azaspiro[isoxazole-5,3′-bicyclo[2.2.2]octan]-3-amine hydrochloride]	> 10
Fc1ccc2sc(NC3=NO[C@@]4(C3)CN3CCC4CC3)nc2c1 [(R)-27, (R)—N-(5-fluorobenzo[d]thiazol-2-yl)-4H-1′-azaspiro[isoxazole-5,3′-bicyclo[2.2.2]octan]-3-amine hydrochloride]	5.7
